Holding throughout (test): NCI-60 cell line screen, 48 h
Assay [1] concerns A549 NSCLC.
Assay [2] has as its system ACHN renal.
The test system of assay [3] is CAKI-1 renal.
Assay [4] relates to EKVX NSCLC.
Assay [5] relates to HS 578T breast.
Assay [6] concerns KM12 colon.
The test system of assay [7] is SNB-19 CNS.
For assay [8], the system named is SW-620 colon.

Results on nine molecules are retold here after PubChem BioAssay (NCI).

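These data come from cells grown in 96-well plates and exposed to compound for 48 hours at five concentrations. GI50 marks 50% less growth. TGI: total growth inhibition.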

As for `C=CCCC(=O)N1C=CC(=O)[C@H](O)[C@@H]1/C=C/c1ccccc1`, the GI50 in assay [1] is 18.2 µM; in assay [2], 5.27 µM; in assay [3] it was 25.1 µM; in assay [4], 7.63 µM; in assay [5], more than 32.5 µM; in assay [6] it was 16 µM. For the same molecule, the figures for the GI50 in assay [7] and in assay [8] were 17.2 µM and 12.8 µM, respectively. For the same molecule, the TGI in assay [1], in assay [2], in assay [3], in assay [4], in assay [5] and in assay [6] was more than 32.5 µM in each case. Moreover, the TGI in assay [7] and in assay [8] was more than 32.5 µM throughout.

On to `CN(C)CCNc1nc2ccccc2c2c(=O)c3ccccc3sc12`, for which the GI50 was 1.81 µM in assay [1]; 1.61 µM in assay [2]; 3.11 µM in assay [3]; 1.66 µM in assay [4]; 2.89 µM in assay [5]; 1.71 µM in assay [6]. In addition, the GI50 in assay [7] is 2.83 µM; in assay [8], 1.39 µM. The TGI stood at 3.96 µM in assay [1]; 4.3 µM in assay [2]; 14.5 µM in assay [3]; 4.98 µM in assay [4]; 11.7 µM in assay [5]; 3.72 µM in assay [6]. In addition, the TGI worked out at 11.3 µM in assay [7] and 3.12 µM in assay [8].

Take `Cc1ccc2c(c1)C(=O)c1c-2n(CCCN=[N+]=[N-])c(=O)c2cc([N+](=O)[O-])ccc12`: the GI50 was 97.8 µM in assay [1]; 30.8 µM in assay [2]; 53.9 µM in assay [3]; more than 100 µM in assay [4]; more than 100 µM in assay [5]; 83 µM in assay [6]. Also, the GI50 in assay [7] was more than 100 µM; in assay [8], 59.7 µM. Besides, the TGI in assay [1], in assay [2], in assay [3], in assay [4], in assay [5] and in assay [6] was more than 100 µM each time. Moreover, the TGI in assay [7] and in assay [8] was more than 100 µM each time.

`COc1cc(/C=N\O)nc(-c2ccccn2)c1`: the TGI in assay [1] is more than 100 µM; in assay [2], more than 100 µM; in assay [3], 28 µM; in assay [4], 23.5 µM; in assay [5], more than 100 µM; in assay [6] it was more than 100 µM. Also, the TGI in assay [7] and in assay [8] was more than 100 µM in each case.

Regarding `CC[C@H](NC(=O)[C@H](CS(=O)(=O)CC1CC1)N[C@@H](c1ccc(F)cc1)C(F)(F)F)C(=O)C(=O)NC1CC1`, the GI50 in assay [1] is more than 100 µM; in assay [2], more than 100 µM; in assay [3], more than 100 µM; in assay [4], 90.3 µM; in assay [5] it was more than 100 µM; in assay [6], more than 100 µM. In addition, the GI50 in assay [7] and in assay [8] was more than 100 µM each time. Besides, the TGI in assay [1], in assay [2], in assay [3], in assay [4], in assay [5] and in assay [6] was more than 100 µM each time. For the same molecule, the TGI in assay [7] and in assay [8] was more than 100 µM in each case.

In the case of `COc1ccc2c(c1)CC[C@@H]1[C@@H]2CC[C@]2(C)C=C(/C=C/C(=O)c3ccccc3)C[C@@H]12`, the GI50 in assay [1] was 18.5 µM; in assay [2], 16.4 µM; in assay [3], 20.3 µM; in assay [4], 17.7 µM; in assay [5] it was 19 µM; in assay [6] it was 17.7 µM. The GI50 in assay [7] is 16.8 µM; in assay [8], 15.4 µM. Also, the TGI in assay [1] came to 40.2 µM; in assay [2], 31.1 µM; in assay [3], 38.3 µM; in assay [4] it was 32.3 µM; in assay [5], 49 µM; in assay [6] it was 39.6 µM. The TGI was determined as 31.5 µM in assay [7] and 30.2 µM in assay [8].

In the case of `O=c1c2c3c(sc2n2c(-c4ccc(Br)cc4)nnc2n1Cc1ccccc1)CCCC3`, the GI50 was 12.4 µM in assay [1]; 8.74 µM in assay [2]; 6.02 µM in assay [3]; 10.6 µM in assay [4]; 11.9 µM in assay [5]; 10.2 µM in assay [6]. Moreover, the GI50 is 8.12 µM in assay [7] and 13.1 µM in assay [8]. Besides, the TGI in assay [1] is 24.8 µM; in assay [2] it was 21.1 µM; in assay [3], 22.4 µM; in assay [4], 23.4 µM; in assay [5] it was 36.6 µM; in assay [6], 24.7 µM. Moreover, the TGI in assay [7] is 20.7 µM; in assay [8], 26.3 µM.

In the case of `O=C(NCCCCOCC#Cc1ccccc1C#CCS(=O)(=O)c1ccccc1)c1cc2ccccc2[nH]1`, the GI50 in assay [1] is 16.8 µM; in assay [2], 9.64 µM; in assay [3] it was 14.9 µM; in assay [4], 22.5 µM; in assay [5], 21.9 µM; in assay [6], 17.5 µM. Further, the GI50 in assay [7] was 15.1 µM; in assay [8], 11.5 µM. Besides, the TGI in assay [1] was more than 50 µM; in assay [2] it was 22.9 µM; in assay [3], more than 38.2 µM; in assay [4] it was more than 50 µM; in assay [5], more than 50 µM; in assay [6], more than 50 µM. Besides, the results for the TGI in assay [7] and in assay [8] were more than 50 µM and more than 45.5 µM, respectively.

Turning to `CCOC(=S)SCN1C(=O)c2ccccc2S1(=O)=O`, the GI50 in assay [1] was 23.9 µM; in assay [2], 16.8 µM; in assay [3], 13 µM; in assay [4], 19.7 µM; in assay [5] it was 29.4 µM; in assay [6], 35 µM. Moreover, the GI50 is 28.7 µM in assay [7] and 4.96 µM in assay [8]. Further, the TGI in assay [1] was 58.3 µM; in assay [2], 30.5 µM; in assay [3] it was 27.6 µM; in assay [4] it was 36.6 µM; in assay [5], 82.5 µM; in assay [6], more than 100 µM. Further, the TGI in assay [7] stood at 88.8 µM; in assay [8], 19.7 µM.
